{"source": "patent US20200038355A1", "about": "“ANTIOXIDANTS FOR USE IN OPHTHALMIC SURGERY” (Case Western Reserve University, priority 2017, published 2020)", "molecules": {"B1": {"name": "TGFβ2: Human TGFβ2, profibrogenic cytokine purchased from Sigma-Aldrich (protein, UniProt P61812 303-414, looked up)", "Transforming growth factor …": "ALDAAYCFRNVQDNCCLRPLYIDFKRDLGWKWIHEPKGYNANFCAGACPYLWSSDTQHSRVLSLYNTINPEASASPCCVSQDLEPLTILYYIGKTPKIEQLSNMIVKSCKCS"}}, "assay_type_in_all_cases": "cell-based", "key": {"[1]": {"tested_on": "mouse lens ex vivo culture", "test": "Mouse whole lens ex vivo culture, lens capsule immunoblot", "experimental": "The isolated intact lens was rinsed three times with HBSS and then cultured in 12-well-plates with serum-free Medium 199 (ThermoFisher) with 50 unit/ml penicillin streptomycin at 37° C. in 5% CO2 incubator, as described above. The lens explant was cultured following the same procedure as described by a previous report. […] et al., Exp Eye Res 71, 591-597 (2000). In brief, the mouse lens was placed in an anterior-toposterior orientation with the anterior attached to the culture dish. The lens posterior capsule was torn/cut by the tip of extra-fine forceps and then peeled towards anterior capsule and pinned on the plastic culture dish. The lens fiber mass was removed thereafter. The explant was cultured in serum-free MEM medium supplied with 50 unit/ml penicillin streptomycin at 37° C. in 5% CO2 incubator as described above. Only healthy growing explants were used for the described study and any unhealthy looking explants, such as folded explants or those with cell detachment, were discarded. Cells were placed 24 hr before the treatment and fresh medium was replaced immediately before the treatment. The indicated concentrations of BSO, DMF, NAC, GSH-EE or TGFβ2 were added to fresh medium and incubated at various time intervals as indicated. After treatment time, the cells were harvested after three washes with ice-cold PBS and subjected to immunoblot or other assays as described below. For whole lens culture, the serum-free medium with or without BSO, NAC, GSH-EE or TGFβ2 was incubated immediately after isolation for 48 hr and the whole lens or lens capsule was collected for further analysis. For lens explant culture, 48 hr after explant culture, various stimulates were used in fresh serum-free medium for an additional 48 hr, and the explant was fixed with 10% formaldehyde for 10 min before immunofluorescence stain, as described below. The cells, whole lens, lens capsule, and lens fibers were collected and lysed in lysis buffer containing 20 mM Tris pH 7.5, 1 mM EDTA, 1 mM EGTA, 150 mM NaCl, 1% Triton X-100, 2.5 mM sodium pyrophosphate, 1 mM bα-Glycerolphosphate, 1 mM Na3VO4, 1 mg/ml Leupeptin, 1 mM PMSF on ice for 10 min. The protein concentration from the supernatant was determined by protein BCA assay (ThermoFisher). The protein extract was further processed for immunoblot analysis and probed for αSMA, collagen I, vimentin, phosphorylated Smad2, phosphorylated Smad3, phosphorylated GSK-3β and (β-catenin. All data were normalized to the level of GAPDH."}, "HLE-B3 cells": {"tested_on": "HLE-B3 cells", "test": "EMT marker / Wnt-β-catenin immunoblot in human lens epithelial cell line HLE-B3", "conditions": "for type I collagen expression / vimentin expression: 24 h challenge, 25 μM DMF or both", "experimental": "(§1) Cell Culture—Human lens epithelial cells (HLE-B3) were grown in DMEM medium with 10% fetal bovine serum (FBS), 2 mM glutamine and 50 unit/ml penicillin streptomycin (ThermoFisher, Waltham, Mass.) at 37° C. in a humidified 5% CO2 incubator. For primary porcine lens epithelial cell culture, pig eyes were collected at a local slaughterhouse within two hours of postmortem time, placed on ice and transported to the lab (about 1 hr) for immediate processing. First, the isolated lens was incubated with 2 ml of 0.25% trypsin at 37° C. for 2 min to remove any attached non-lens cells. Then, after a brief rinse with HBSS, the lens capsule was isolated and rinsed three times with HBSS before incubation with 2 ml of 0.5% trypsin for 5 min. 5 ml of complete DMEM medium was added and tissue was disrupted by pipetting up and down 10-15 times with a pipette fitted with a 1000 μl tip. The tissue homogenate was then passed through a 100 μm cell strainer. The cells were collected by low speed centrifugation at 150×g and placed in a 35 mm laminin-coated tissue culture dish with DMEM medium supplied with 10% FBS, 2 mM glutamine and 50 unit/ml penicillin streptomycin (ThernoFisher). The cells were cultured at 37° C. in a humidified incubator with 5% CO2.\n(§2) Cells were placed 24 hr before the treatment and fresh medium was replaced immediately before the treatment. The indicated concentrations of BSO, DMF, NAC, GSH-EE or TGFβ2 were added to fresh medium and incubated at various time intervals as indicated. After treatment time, the cells were harvested after three washes with ice-cold PBS and subjected to immunoblot or other assays as described below. For whole lens culture, the serum-free medium with or without BSO, NAC, GSH-EE or TGFβ2 was incubated immediately after isolation for 48 hr and the whole lens or lens capsule was collected for further analysis. For lens explant culture, 48 hr after explant culture, various stimulates were used in fresh serum-free medium for an additional 48 hr, and the explant was fixed with 10% formaldehyde for 10 min before immunofluorescence stain, as described below.\nThe cells, whole lens, lens capsule, and lens fibers were collected and lysed in lysis buffer containing 20 mM Tris pH 7.5, 1 mM EDTA, 1 mM EGTA, 150 mM NaCl, 1% Triton X-100, 2.5 mM sodium pyrophosphate, 1 mM bα-Glycerolphosphate, 1 mM Na3VO4, 1 mg/ml Leupeptin, 1 mM PMSF on ice for 10 min. The protein concentration from the supernatant was determined by protein BCA assay (ThermoFisher). The protein extract was further processed for immunoblot analysis and probed for αSMA, collagen I, vimentin, phosphorylated Smad2, phosphorylated Smad3, phosphorylated GSK-3β and (β-catenin. All data were normalized to the level of GAPDH."}, "[2]": {"tested_on": "primary porcine lens epithelial cells", "test": "αSMA expression in primary cultured porcine lens epithelial cells (pLEC)", "experimental": "as §1\nCells were placed 24 hr before the treatment and fresh medium was replaced immediately before the treatment. The indicated concentrations of BSO, DMF, NAC, GSH-EE or TGFβ2 were added to fresh medium and incubated at various time intervals as indicated. After treatment time, the cells were harvested after three washes with ice-cold PBS and subjected to immunoblot or other assays as described below. […]\nThe cells, whole lens, lens capsule, and lens fibers were collected and lysed in lysis buffer containing 20 mM Tris pH 7.5, 1 mM EDTA, 1 mM EGTA, 150 mM NaCl, 1% Triton X-100, 2.5 mM sodium pyrophosphate, 1 mM bα-Glycerolphosphate, 1 mM Na3VO4, 1 mg/ml Leupeptin, 1 mM PMSF on ice for 10 min. The protein concentration from the supernatant was determined by protein BCA assay (ThermoFisher). […]"}, "lens explant": {"tested_on": "lens explant", "test": "Mouse lens explant culture (ex vivo PCO mimetic model), αSMA immunofluorescence", "conditions": "1 ng/ml TGFβ2, 48 hr stimulation", "experimental": "The isolated intact lens was rinsed three times with HBSS and then cultured in 12-well-plates with serum-free Medium 199 (ThermoFisher) with 50 unit/ml penicillin streptomycin at 37° C. in 5% CO2 incubator, as described above. The lens explant was cultured following the same procedure as described by a previous report. Tamiya et al., Exp Eye Res 71, 591-597 (2000). In brief, the mouse lens was placed in an anterior-toposterior orientation with the anterior attached to the culture dish. The lens posterior capsule was torn/cut by the tip of extra-fine forceps and then peeled towards anterior capsule and pinned on the plastic culture dish. The lens fiber mass was removed thereafter. The explant was cultured in serum-free MEM medium supplied with 50 unit/ml penicillin streptomycin at 37° C. in 5% CO2 incubator as described above. Only healthy growing explants were used for the described study and any unhealthy looking explants, such as folded explants or those with cell detachment, were discarded.\nas §2, with “For lens explant culture, 48 hr after explant culture, various stimulates were used in fresh serum-free medium for an additional 48 hr, and the explant was fixed with 10% formaldehyde for 10 min before immunofluorescence stain, as described below.” left out\nConfocal microscope—All confocal images were collected by a Leica SP8 gSTED confocal microscope equipped with two 3 Hyd SP GaAsP detectors and the AOBS system lasers include a 405 nm, Argon (458, 476, 488, 496, 514 nm), a tunable white light (470 to 670 nm), and a 592 nm STED depletion laser. For proper comparison, each channel of fluorescence was adjusted to the highest sensitivity/intensity but without over saturation from samples with the strongest signal. […]"}, "[3]": {"conditions": "mouse lens ex vivo culture, 500 μM BSO, 48 hrs"}, "[4]": {"conditions": "HLE-B3 cells, 24 hr treatment with increasing concentration of BSO or DMF"}, "[5]": {"conditions": "HLE-B3 cells, 24 hr, 500 μM BSO or 25 μM DMF"}, "[6]": {"conditions": "lens capsule after ex vivo lens culture, BSO plus XAV939, 48 hr"}, "[7]": {"conditions": "HLE-B3 cells, XAV939 co-incubated with 500 μM BSO, 24 hr"}}, "note": "“Also recorded” adds a separate entry of the source. Structures can show the parent of a compound that is named as a salt.", "data": [{"molecule": "CCCCS(=N)(=O)CCC(N)C(=O)O", "note": "(stereo not shown) [BSO, buthionine sulfoximine]", "values": [{"measurement": "phosphorylation at serine 9 of GSK-3β", "setting": "[1]; lens capsules after whole lens ex vivo culture with BSO, 48 hr", "result": "significantly increased"}, {"measurement": "increase of vimentin expression compared to medium alone", "setting": "[1]; [3]", "result": "~2", "unit": "fold"}, {"measurement": "increase of αSMA expression compared to medium alone", "setting": "[1]; [3]", "result": "over 3.5 fold"}, {"measurement": "phosphorylation status of Smad2 and Smad3", "setting": "HLE-B3 cells; HLE-B3 cells with or without 500 μM BSO, 24 hr", "result": "no remarkable changes"}, {"measurement": "αSMA production, combination with TGFβ2", "setting": "HLE-B3 cells; HLE-B3 cells, 500 μM BSO combined with 1 ng/ml TGFβ2, 24 hr", "result": "synergistic effect"}, {"measurement": "phosphorylation at serine 9 of GSK-3β", "setting": "HLE-B3 cells; HLE-B3 cells, 500 μM BSO, 24 hr", "result": "significantly elevated; also recorded: significantly increased"}, {"measurement": "type I collagen expression", "setting": "HLE-B3 cells; HLE-B3 cells, 500 μM BSO", "result": "Significantly increased; also recorded: significantly elevated"}, {"measurement": "vimentin expression", "setting": "HLE-B3 cells; HLE-B3 cells, 500 μM BSO", "result": "Significantly increased; also recorded: significantly elevated"}, {"measurement": "αSMA expression", "setting": "HLE-B3 cells; [4]", "result": "increased; also recorded: significantly upregulated"}, {"measurement": "αSMA expression", "setting": "HLE-B3 cells; [5]", "result": "Significantly increased"}, {"measurement": "αSMA expression", "setting": "[2]; pLECs, increased concentration of BSO, 24 hr", "result": "increases"}, {"measurement": "concentration required to stimulate a similar fold of αSMA production", "setting": "[2]; primary porcine lens epithelial cells, 24 hr, 100 times lower than in HLE-B3", "result": 5, "unit": "µM"}, {"measurement": "cell death", "setting": "[2]; primary porcine lens epithelial cells, higher dosages of BSO (>100 μM)", "result": "massive cell death and detachment"}]}, {"molecule": "Oc1nc(-c2ccc(C(F)(F)F)cc2)nc2c1CSCC2", "note": "[XAV939]", "values": [{"measurement": "αSMA production after BSO challenge", "setting": "[1]; [6]", "result": "block"}, {"measurement": "β-catenin production after BSO challenge", "setting": "[1]; [6]", "result": "block"}, {"measurement": "αSMA production after BSO challenge", "setting": "HLE-B3 cells; [7]", "result": "block"}, {"measurement": "β-catenin production after BSO challenge", "setting": "HLE-B3 cells; [7]", "result": "block"}]}, {"molecule": "COC(=O)/C=C/C(=O)OC", "note": "[DMF, dimethyl fumarate]", "values": [{"measurement": "type I collagen expression", "setting": "HLE-B3 cells; HLE-B3 cells, 500 μM BSO", "result": "Significantly increased; also recorded: significantly elevated"}, {"measurement": "vimentin expression", "setting": "HLE-B3 cells; HLE-B3 cells, 500 μM BSO", "result": "Significantly increased; also recorded: significantly elevated"}, {"measurement": "αSMA expression", "setting": "HLE-B3 cells; [4]", "result": "increased; also recorded: significantly upregulated"}, {"measurement": "αSMA expression", "setting": "HLE-B3 cells; [5]", "result": "Significantly increased"}]}, {"molecule": "B1", "values": [{"measurement": "αSMA expression in lens explant compared to medium alone", "setting": "lens explant", "result": "activated; also recorded: profound elevation"}]}]}
